The values below come from the Deep4Chem optical property database.

The nature of this series: photoluminescence quantum yield (fraction); solvent given as SMILES.

The compound `CN(C)CCN(Cc1c2ccccc2cc2ccccc12)c1ccc([N+](=O)[O-])cc1[N+](=O)[O-]` showed a photoluminescence quantum yield (in C1CCCCC1) of 0.0001; a photoluminescence quantum yield (in C1CCOC1) of 0.0004; a photoluminescence quantum yield (in CC#N) of 0.0185; a photoluminescence quantum yield (in CC(C)=O) of 0.0043; a photoluminescence quantum yield (in CCO) of 0.0087; a photoluminescence quantum yield (in CN(C)C=O) of 0.0293. In addition, the photoluminescence quantum yield amounted to 0.0093 (in CO), 0.0426 (in CS(C)=O), 0.0009 (in ClC(Cl)Cl) and 0.0057 (in ClCCl).

As for `Cc1ccccc1/C(C#N)=C/c1ccc(N(C)C)cc1`, the photoluminescence quantum yield (in C1CCOC1) was 0.011; the photoluminescence quantum yield (in C1COCCO1) is 0.01; the photoluminescence quantum yield (in CC#N) stood at 0.014; the photoluminescence quantum yield (in CCCCCC) was determined as 0.012; the photoluminescence quantum yield (in CCCCCCC) amounted to 0.008; the photoluminescence quantum yield (in CCCCCO) came out at 0.01. The photoluminescence quantum yield is 0.006 (in CCCCO); 0.008 (in CCCO); 0.006 (in CCO); 0.007 (in CCOC(C)=O); 0.015 (in CN(C)C=O); 0.005 (in CO). The photoluminescence quantum yield (in CS(C)=O) turned out to be 0.011, the photoluminescence quantum yield (in Cc1ccccc1) was 0.021 and the photoluminescence quantum yield (in ClC(Cl)Cl) came out at 0.009.

With `c1ccc(-c2ncc3ccccn23)cc1`, the photoluminescence quantum yield (in ClC(Cl)Cl) came to 0.05.

On to `CC(=O)c1ccc(-c2cnc3nn4ccccc4c3n2)cc1`, for which, where the note is “in C1CCOC1”, the photoluminescence quantum yield worked out at 0.5.

For `Cc1cscc1-c1cc2c3cc(-c4cscc4C)c4nc(C(F)(F)C(F)(F)C(F)(F)F)nc5c(-c6cscc6C)cc(c6cc(-c7cscc7C)c7nc(C(F)(F)C(F)(F)C(F)(F)F)nc1c7c26)c3c45`, the photoluminescence quantum yield (in C1CCOC1) came out at 0.33.

In the case of `COC(=O)[C@@H]1C(=O)Oc2ccccc2[C@H]1c1c[nH]c2ccccc12`, for the setting “in CS(C)=O”, the photoluminescence quantum yield was found to be 0.0094.

In turn, `CCn1c2ccccc2c2cc(/C=C/c3cccc[n+]3CCCS(=O)(=O)[O-])ccc21` registered a photoluminescence quantum yield (in C1CCOC1) of 0.09, a photoluminescence quantum yield (in CC#N) of 0.03, a photoluminescence quantum yield (in CC(C)=O) of 0.03 and a photoluminescence quantum yield (in Cc1ccccc1) of 0.06.

For `COc1nc(Nc2ccc3cc4ccccc4cc3c2)nc(OC)n1`, the photoluminescence quantum yield was found to be 0.45 (in C1COCCO1), 0.37 (in CC#N), 0.39 (in CCCCOCCCC) and 0.26 (in CCOC(C)=O).

`c12c3c4c5c1c1c6c7c2c2c8c3c3c9c4c4c%10c5c5c1c1c6c6c%11c%12c%13c%14c%15c%16c%17c%14c%14c%18c%13c%11c1c1c5c%10c5c(c%14c%10c%17c%11c%13c%16c%14c%16c%15c%12c%12c%16c(c2c7c%126)c2c8c3c(c%13c%142)c2c9c4c5c%10c%112)c%181` had a photoluminescence quantum yield (in CC1CCCCC1) of 0.0006.

As to `COc1ccc2c(c1)SCC1=C(c3ccccc3)C3=Nc4c(-c5ccccc5)c5c(n4[B-](F)(F)[N+]3=C12)-c1ccc(OC)cc1SC5`, under “in ClC(Cl)Cl”, the photoluminescence quantum yield was determined as 0.11.

Compound `N#Cc1ccc(-c2pc3ccccc3s2)cc1` (stereo not drawn) registered a photoluminescence quantum yield (in CC#N) of 0.017.

Compound `COc1ccc(-c2cnc(-c3ccccc3)o2)cc1OC` came in with a photoluminescence quantum yield (in ClCCl) of 0.19.

Regarding `COc1ccc(-c2cc3c(o2)=CC2=C(C(F)(F)F)c4cc5oc(-c6ccc(OC)cc6)cc5n4[B-](F)(F)[N+]=32)cc1`, the photoluminescence quantum yield was found to be 0.49 (in C1CCOC1); 0.45 (in CC#N); 0.37 (in CCO); 0.32 (in CO); 0.58 (in Cc1ccccc1); 0.56 (in ClC(Cl)Cl).

`CCCCCCn1c2cc(C(=O)OCC)ccc2c2c1c1ccc(C(=O)OCC)cc1n2CCCCCC` gave a photoluminescence quantum yield (in CCCO) of 0.6.
